Experimental data from patent publication US12036241B2, “Compositions and methods for immune cell modulation in adoptive immunotherapies” (Fate Therapeutics, Inc., priority 2017, dated 2024).
“Also recorded” adds a separate entry of the source.

Assays:
CD8+ T cells = test: Cytokine production (IFNγ, IL-2, TNFα) after PMA/ionomycin, intracellular staining; assay type: cell-based, human; settings: PMA/ionomycin 4 h; for increase of IFNγ+ only subpopulation / increase of IL-2 only subpopulation: FIG. 3D
Method: The ability of T cells to respond to a variety of stimuli can be important to their function. The capacity of T cells to produce multiple cytokines in response to non-specific stimulation is a measure of their ‘multifunctionality’. To assess whether compounds affect this ‘multifunctional’ response, the ability of modulated T cells to produce interferon-γ (IFNγ), IL-2 and/or TNFα post-stimulation was determined. After CD8^+ T cell treatment with each of the selected compounds, cells were stimulated with a mixture of PMA/ionomycin for four hours. Following stimulation, cytokine production was measured using intracellular cytokine staining with antibodies recognizing these cytokines conjugated to different fluorophores. Fluorescence was measured using flow cytometry. Cell were defined as multifunctional if they produced two or more cytokines. The proportion of T cell subsets that produce specific single, double or triple cytokines was examined and compared to cells without modulation using a selected compound.
The ability of T cells to respond to a variety of stimuli is important for their function. The capacity of T cells to produce multiple cytokines in response to non-specific stimulation is a measure of their “multifunctionality”. To assess whether selected compounds affect this “multifunctional” response in view of their phenotype skewing effect on the treated cells, the ability of treated cells to produce interferon-γ (IFNγ), IL-2 and TNFα post-stimulation was determined. After treatment of CD8+ T cells with a compound from Table 1, cells were stimulated with a mixture of PMA/ionomycin for four hours. Following stimulation, cytokine production was measured by intracellular cytokine staining with fluorescence-emitting antibodies recognizing these cytokines conjugated to different fluorophores. Fluorescence was measured using flow cytometry. Cells were defined as multifunctional if they produced at least two of the three cytokines.

[1] = system: T cells from healthy donors; test: Phenotypic profiling of T cells: CCR7, CD62L, CD27 surface markers by flow cytometry; assay type: cell-based, human; settings: FIG. 1A; for Tcm phenotype / effect on improving Tcm percentage: relative to vehicle
Source text: (§1) Fresh leukopaks (AllCells, Alameda, Calif.; Key Biologics, Memphis, Tenn.) were obtained from healthy donors, from which T cells were negatively selected using, for example, the EasySep Human T Cell Enrichment Kit (Stem Cell Technologies, Vancouver, Canada). The freshly isolated T cells were aliquoted and cryopreserved. On the day the assays were initiated, T cells were thawed and washed into X-Vivo 15 with supplements including IL-2 and pen/strep. Cells were dispensed into flat-bottom 384-well plates at 5×10^5 cells/ml with anti-CD3/Anti-CD28 beads. Individual compounds were added at a final concentration over the range of 10 μM to 10 nM to each well from column 3 to column 22 of each plate. Positive and negative controls were added to additional wells. Cells were incubated for about 6 days at 37 degrees with 5% CO2.
(§2) These studies were performed with T cells from healthy donors. Six days post-initiation of culture in the presence of anti-CD3/CD28 beads and compound addition, cells were harvested and stained with a fixable viability marker and fluorophore-conjugated antibodies: CD3, CD4, CD8, CD62L, CCR7, CD27, and Tim3 (BD Biosciences, San Jose, Calif.; and BioLegend, San Diego, Calif.). Fluorescent absolute counting beads (Spherotech, Lake Forest, IL) were added just prior to acquisition. Data acquisition was performed on a BD Fortessa™ X-20 (BD Biosciences) and data were analyzed using Treestar™ software (FlowJo, Ashland, Oreg.) and Spotfire (Tibco, Boston, Mass.). The expression of surface markers including CD62L, CCR7 and CD27 was used to identify naïve, stem cell memory, or central memory T cells. After the treatment with each of the compounds, the surface marker expression profile of the treated cells was evaluated along with characterization of cell proliferation and viability. Compounds were scored on expression of these individual Tcm markers as well as CD62L/CCR7 double positive cells. Gene expression scores were also obtained based on a panel of selected 12 genes (Table 2) that are maximally differentially expressed in CD8 Tcm cells relative to Tem.
The selected groups of compounds were assessed for their ability to skew T cell phenotype. […] Tcm is characterized herein by expression of both CCR7 and CD62L. The expression of either CD62L or CCR7 on T cells, as indicative of the desired T cell subsets, indicates a favorable functional characteristic for CAR-T cell therapy, and potentially other adoptive T cell therapies. The phenotypic studies use flow cytometry to measure the expression levels of these key surface proteins. Compounds were scored on expression of these individual Tcm markers as well as CD62L/CCR7 double positive cells (FIG. 1A). The scores in FIG. 1A were generated using the values obtained from four donors and the formula: Score=Normalized StDev over Vehicle×Significance (−log 10(p-value))+1 Scores for other graphs in this figure used the same formula.

[2] = system: T cells from healthy donors; test: T cell viability and expansion after compound treatment; assay type: cell-based, human; settings: FIGS. 2A, 2B
Source text: as §1, §2
The phenotypic studies of the surface markers also included characterization of cell viability (FIG. 2A) and cell expansion (FIG. 2B). Scores for the graphs in FIGS. 2A-B were obtained using the formula: (Test value−minimum value)/(maximum value—minimum value)×10

[3] = system: irradiated K562 cells expressing CD19 and mKate2; test: Target cell killing by compound-treated CAR-T cells (IncuCyte); assay type: cell-based, human; settings: earlier time points, 24 to 65 hours; FIG. 4A
Method: An in vitro serial killing/re-stimulation assay, where the T cells treated by each compound were evaluated for various functions, including expansion and ability to kill tumor cells expressing the target antigen in vitro over multiple rounds of exposure to and withdrawal from antigen, was used as a model system. Such assays were carried out on cells treated with or without compounds, to assess the impact of individual compounds on cell function after repeated encounter with antigen, and cell expansion or persistence in such contexts.
An in vitro serial killing/re-stimulation assay, where CAR-T cells are tested for the ability to “clear” tumor cells in vitro over multiple rounds, can be used as a model to assess CAR-T expansion in the presence of tumor cells that express the antigen recognized by the CAR.
CD8 T cells were transduced with CARs and the cells were then cryopreserved. After thawing, the CAR-T cells were co-cultured with irradiated K562 tumor cells that express transgenic mKate2, a far-red fluorescent protein, and CD19, the antigen recognized by the CAR. […]
From this, the Area Under the Curve (AUC) for CAR-T cells treated with each compound can be calculated. […] To determine the effect of compound treatment on the killing ability of CAR-T cells, the AUC relative to target cells alone was determined.

CAR-T cells = test: Serial restimulation of CAR-T cells produced with vehicle, PI3K inhibitor or PDK1 inhibitor; assay type: cell-based, human; settings: after antigen stimulation and withdrawal, and with coated beads; FIG. 10 legend
Method: At the end of the manufacturing process, the cells were frozen prior to subsequent functional analysis.
The ability of CAR-T cells produced in the presence of vehicle, PI3K inhibitor, or PDK1 inhibitor to expand through multiple rounds of antigen stimulation was measured in a serial restimulation assay, wherein cryopreserved CAR-T cells were thawed and co-cultured in the presence of antigen-bearing, irradiated target cells. Every 3 to 4 days the CAR-T and target cell ratios were readjusted to approximately 1:1. […] As an alternative to using antigen-bearing, irradiated target cells for CAR-T cell stimulation, cryopreserved CAR-T cells from three independent donors produced in the presence of vehicle, PI3Ki or PDKli were thawed in T cell growth media and subsequently assessed for expansion and survival, as measured by AUC (area under the curve) of the expansion over 14 days of stimulation with anti-CAR antibodies conjugated to beads.

Raji = test: Survival in Raji/NSG tumor model, suboptimal CAR-T dose; assay type: in vivo, NSG mice; settings: 2.5×10^5 CD19 CAR-T cells; FIG. 12B; listed as PI3K inhibitor
Method: (§3) Next, an in vivo assay was conducted to further characterize CAR-T cells produced in the presence of a PI3K inhibitor or a PDK1 inhibitor for tumor clearance. NSG mice were injected with a human leukemia line, Nalm-6. Four days later, mice were treated with a suboptimal dose (3×10^5) of freshly thawed CD19 CAR-T cells generated in the presence of vehicle (“DMSO” n=8), PI3K inhibitor (n=8), or PDK1 inhibitor (n=8). Some tumor bearing mice (n=2) also received expanded T cells that were not transduced with CAR (untransduced or “UNTD”). Negative control mice (n=2, “Unmanip”) received neither tumor nor CAR T cells. […] Seven days later, a suboptimal dose (2.5×10^5) of CD19 CAR-T cells produced in the presence of DMSO, PDK1 inhibitor, or PI3K inhibitor were transferred and the survival of the tumor bearing mice was monitored.

Nalm-6 = test: Survival in Nalm6/NSG tumor model, suboptimal CAR-T dose; assay type: in vivo, NSG mice; settings: 3×10^5 CD19 CAR-T cells; FIG. 12A; listed as PI3K inhibitor
Method: as §3

Cc1sc2c(c1C)C(c1ccc(Cl)cc1)=N[C@@H](CC(=O)Nc1ccc(O)cc1)c1nnc(C)n1-2 [Compound 1, OTX015]
increase of total multifunctional subpopulation (at least 2 cytokines) (CD8+ T cells; CD8+ T cells, vs vehicle): ~16 fold | increase of cells producing all three cytokines (CD8+ T cells; IFNγ, IL-2, TNFα): ~13 fold | increase of IFNγ+ only subpopulation (CD8+ T cells): about 33 fold

C1=C/COCc2cc(ccc2OCCN2CCCC2)Nc2nccc(n2)-c2cccc(c2)COC/1 [Compound 17, Pacritinib]
increase of IL-2 only subpopulation (CD8+ T cells): about 11 fold

CC(=O)OCC(=O)[C@@]12OC3(CCCC3)O[C@@H]1C[C@H]1[C@@H]3CCC4=CC(=O)C=C[C@]4(C)[C@@]3(F)[C@@H](O)C[C@@]12C [Compound 12, Amcinonide]
Tcm phenotype / effect on improving Tcm percentage [1]: minimal effect | cell viability and/or expansion relative to vehicle treatment [2]: enhance cell viability and/or expansion

O=C1NCCN1CCN1CCC(c2cn(-c3ccc(F)cc3)c3ccc(Cl)cc23)CC1 [Compound 8, Sertindole]
Tcm phenotype / effect on improving Tcm percentage [1]: minimal effect | cell viability and/or expansion relative to vehicle treatment [2]: enhance cell viability and/or expansion

Cc1ccc(NC(=O)c2cccc(C(C)(C)C#N)c2)cc1Nc1ccc2ncn(C)c(=O)c2c1 [Compound 23, AZ628]
kinetics of target cell killing compared to vehicle [3]: slower than for vehicle | increase of IFNγ+ only subpopulation (CD8+ T cells): ~116 fold | increase of IL-2 only subpopulation (CD8+ T cells): ~18 fold

CC1(C)O[C@@H]2C[C@H]3[C@@H]4C[C@H](F)C5=CC(=O)C=C[C@]5(C)[C@H]4[C@@H](O)C[C@]3(C)[C@]2(C(=O)CO)O1 [Compound 10, Flunisolide]
Tcm phenotype / effect on improving Tcm percentage [1]: minimal effect | cell viability and/or expansion relative to vehicle treatment [2]: enhance cell viability and/or expansion

Cc1ccc(-c2ncc(Cl)cc2-c2ccc(S(C)(=O)=O)cc2)cn1 [Compound 7, Etoricoxib]
Tcm phenotype / effect on improving Tcm percentage [1]: minimal effect | cell viability and/or expansion relative to vehicle treatment [2]: enhance cell viability and/or expansion

CC(=O)OCC(=O)[C@@]1(O)[C@H](C)C[C@H]2[C@@H]3CCC4=CC(=O)C=C[C@]4(C)[C@@]3(F)[C@@H](O)C[C@@]21C [Compound 11, Dexamethasone Acetate]
Tcm phenotype / effect on improving Tcm percentage [1]: minimal effect | cell viability and/or expansion relative to vehicle treatment [2]: enhance cell viability and/or expansion

Oc1cccc(-c2nc(N3CCOCC3)c3oc4ncccc4c3n2)c1 [PI103]
CAR-T cell expansion (CAR-T cells): improves CAR-T cell expansion | survival of tumor bearing mice compared to DMSO treated CAR-T cells (Raji): substantially improved; also recorded: improves survival | survival of tumor bearing mice compared to DMSO generated CAR-T cells (Nalm-6): prolonged survival; also recorded: improves survival

C[C@@H]1CCN(C(=O)CC#N)C[C@@H]1N(C)c1ncnc2[nH]ccc12 [Compound 18, Tofacitinib]
increase of IL-2 only subpopulation (CD8+ T cells): ~4 fold

CC(C)(C)c1nc(-c2cccc(NS(=O)(=O)c3c(F)cccc3F)c2F)c(-c2ccnc(N)n2)s1 [Compound 24, Dabrafenib]
increase of the percentage of CCR7, CD62L double positive cells (Tcm) relative to vehicle ([1]; T cells, about 6 days with anti-CD3/CD28 beads, vs DMSO): about 10 fold
